# Measurements taken from ChEMBL document CHEMBL1125236 (J Med Chem, 1991).
# Several values for one entry are separate records, joined by “and”; a condition that tells them apart may be missing. Equal values may be shown once.
# Experiments:
# [1] = Compound was evaluated for growth inhibition of WI-L2 cells.; format: functional, cell-based; conditions: Homo sapiens, WIL2
# L1210 [2] = test: Compound was evaluated for the growth inhibition of L1210 cells.; format: functional, cell-based; conditions: Mus musculus
# Dihydrofolate reductase = target: T1, Dihydrofolate reductase (Homo sapiens, UniProt P00374)
# T1 sequence (P00374 whole entry): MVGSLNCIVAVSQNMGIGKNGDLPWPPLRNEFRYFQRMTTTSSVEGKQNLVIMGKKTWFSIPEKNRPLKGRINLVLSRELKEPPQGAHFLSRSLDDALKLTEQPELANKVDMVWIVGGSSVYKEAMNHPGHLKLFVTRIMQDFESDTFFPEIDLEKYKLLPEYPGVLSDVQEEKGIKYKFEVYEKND
# Description: Inhibition of dihydrofolate reductase (DHFR) from human cells (WI-L2/M4).
# L1210 [3] = test: Antitumor activity (T/C) evaluated against L1210 leukemia from the median survival time of treated mice (T) over that of control mice (C) at a dose of 4 mg/kg; format: functional, Mus musculus
# L1210 [4] = test: Antitumor activity (T/C) evaluated against L1210 leukemia from the median survival time of treated mice (T) over that of control mice (C) at a dose of […] as experiment 1; format: functional, Mus musculus
# L1210 [5] = test: Antitumor activity (T/C) evaluated against L1210 leukemia from the median survival time of treated mice (T) over that of control mice (C) at a dose of 0.75 mg/kg as experiment 3
# L1210 [6] = test: Antitumor activity (T/C) evaluated against L1210 leukemia from the median survival time of treated mice (T) over that of control mice (C) at a dose of 1 mg/kg; format: functional, Mus musculus
Structure (SMILES),IC50 [1] [nM],IC50 (L1210 [2]) [nM],IC50 (Dihydrofolate reductase) [nM],T/C (L1210 [3]),T/C (L1210 [4]) [%],T/C (L1210 [5]) [%],T/C (L1210 [6]) [%]
Nc1nc(N)c2nc(CNc3ccc(C(=O)NC(CCC(=O)Nc4cccc(C(=O)O)c4)C(=O)O)cc3)cnc2n1 (stereo not drawn),6.1,25,32,–,–,–,–
Nc1nc(N)c2nc(CNc3ccc(C(=O)N[C@@H](CCC(=O)O)C(=O)O)cc3)cnc2n1 [AMINOPTERIN],7.1,–,–,–,–,–,–
CN(Cc1cnc2nc(N)nc(N)c2n1)c1ccc(C(=O)N[C@@H](CCC(=O)O)C(=O)O)cc1 [METHOTREXATE],–,–,–,175% and 188% and 200%,213,175,188
